According to patent publication US20230212653A1, “METHODS AND MATERIALS FOR ASSESSING HOMOLOGOUS RECOMBINATION DEFICIENCY IN BREAST CANCER SUBTYPES” (Myriad Genetics, Inc., priority 2021, published 2023):

System: triple negative breast cancer (TNBC)
Experiment: Pathologic response of a neoadjuvant TNBC cohort treated with cisplatin (Example 6)
Type: in vivo, human
Conditions: for PR = yes, % response / pCR = yes, % response: secondary analysis; for pCR = yes, % response: n=51
Procedure: Analysis of a neoadjuvant TNBC cohort treated with cisplatin was examined relative to the relationship between all three HRD scores and response. All p values were from logistic regression models with response to cisplatin as the dependent variable.
HR Deficiency status was determined for 62 of the 70 samples (70 individual patients) received from a cisplatin cohort (8 had insufficient tumors for analysis). Of these, 31 (50%) were HR deficient, 22 (35%) were non-HR deficient, and 9 (15%) were undetermined. FIG. 15 provides a histogram showing the distribution of HRD scores in the cohort. Scores ≥42 were considered to have high HRD (see also, Example 5). […] Pathologic complete response (pCR), which is associated with long-term survival, was defined as a residual cancer burden (RBC) of 0 and observed in 11/59 (19%) samples. […] These overall response rates correlated with monotherapy expectations.
Statistical analyses followed a predefined Statistical Analysis Plan (SAP), which included primary, secondary, and BRCA wild-type subset analyses.

## N.N.[Cl][Pt][Cl] [cisplatin]
BRCA Mutant
  PR = yes, % response: 5 (55.6%)
  pCR = yes, % response: 3 (33.3%)
BRCA Non-mutant
  PR = yes, % response: 13 (31.0%)
  pCR = yes, % response: 5 (11.9%)
Whole cisplatin cohort, 11/59 samples, pCR = residual cancer burden 0
  Pathologic complete response (pCR) rate: 19%
Whole cisplatin cohort, 22/59 samples, PR = residual cancer burden 0 or 1
  Pathologic response (PR) rate: 37%
